Assay results as given in ChEMBL document CHEMBL6096628, “Discovery of a Highly Potent and Selective BRD9 PROTAC Degrader Based on E3 Binder Investigation for the Treatment of Hematological Tumors” (J Med Chem, 2024).
Activity calls are given as the source filed them. The rule behind the calls is not given here.

How the values were obtained:
[1] = molecular target: T1, Protein cereblon/Bromodomain-containing protein 9 (Homo sapiens, UniProt Q9H8M2+Q96SW2); test: PROTAC activity at CRBN/BRD9 in human MV4-11 cells assessed as induction of BRD9 degradation at 100 nM by Western blot analysis relative to control; format: cell-based
Target sequence in this assay (Q96SW2 whole entry, looked up): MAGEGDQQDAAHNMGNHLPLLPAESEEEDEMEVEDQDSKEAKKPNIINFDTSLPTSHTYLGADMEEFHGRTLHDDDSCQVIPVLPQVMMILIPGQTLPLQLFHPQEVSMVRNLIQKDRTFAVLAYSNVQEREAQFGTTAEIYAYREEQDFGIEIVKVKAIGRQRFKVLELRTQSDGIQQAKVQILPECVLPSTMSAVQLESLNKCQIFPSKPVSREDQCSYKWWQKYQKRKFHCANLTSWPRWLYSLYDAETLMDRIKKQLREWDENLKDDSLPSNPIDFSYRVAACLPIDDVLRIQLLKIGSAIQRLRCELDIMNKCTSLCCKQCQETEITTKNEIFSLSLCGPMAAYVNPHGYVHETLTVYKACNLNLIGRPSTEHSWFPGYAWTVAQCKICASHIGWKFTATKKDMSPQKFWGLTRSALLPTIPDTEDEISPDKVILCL
Target sequence in this assay (Q9H8M2 whole entry, looked up): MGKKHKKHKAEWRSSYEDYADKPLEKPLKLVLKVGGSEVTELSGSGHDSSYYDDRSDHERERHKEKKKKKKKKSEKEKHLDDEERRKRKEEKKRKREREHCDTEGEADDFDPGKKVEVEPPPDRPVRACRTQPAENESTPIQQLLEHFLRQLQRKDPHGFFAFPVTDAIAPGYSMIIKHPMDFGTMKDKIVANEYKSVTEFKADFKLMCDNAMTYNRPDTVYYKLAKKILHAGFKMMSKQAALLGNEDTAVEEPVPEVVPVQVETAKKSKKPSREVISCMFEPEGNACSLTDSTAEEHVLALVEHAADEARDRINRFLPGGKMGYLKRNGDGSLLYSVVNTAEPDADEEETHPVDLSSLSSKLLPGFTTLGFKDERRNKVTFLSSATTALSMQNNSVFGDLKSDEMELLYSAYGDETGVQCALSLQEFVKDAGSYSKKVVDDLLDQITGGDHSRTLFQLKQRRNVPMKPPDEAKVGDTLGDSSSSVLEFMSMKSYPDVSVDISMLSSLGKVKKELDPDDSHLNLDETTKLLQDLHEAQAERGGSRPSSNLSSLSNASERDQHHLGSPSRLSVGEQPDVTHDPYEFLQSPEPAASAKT

[2] = tested on: MV4-11; test: Antiproliferative activity against human MV4-11 cells assessed as inhibition of cell growth incubated for 7 days by MTS reagent based assay; format: functional; settings: MV4-11, 168 h
[3] = molecular target: T1, Protein cereblon/Bromodomain-containing protein 9; test: PROTAC activity at CRBN/BRD9 in human MV4-11 cells assessed as induction of BRD9 degradation at 1 nM by Western blot analysis relative to control; format: cell-based
Target sequence in this assay (Q96SW2 whole entry, looked up): as the sequence (Q96SW2 whole entry, looked up) above
Target sequence in this assay (Q9H8M2 whole entry, looked up): as the sequence (Q9H8M2 whole entry, looked up) above

[4] = molecular target: T1, Protein cereblon/Bromodomain-containing protein 9; test: PROTAC activity at CRBN/BRD9 in human MV4-11 cells assessed as induction of BRD9 degradation at 10 nM by Western blot analysis relative to control; format: cell-based
Target sequence in this assay (Q96SW2 whole entry, looked up): as the sequence (Q96SW2 whole entry, looked up) above
Target sequence in this assay (Q9H8M2 whole entry, looked up): as the sequence (Q9H8M2 whole entry, looked up) above

[5] = tested on: MV4-11; test: Antiproliferative activity against CRBN knockout human MV4-11 cells assessed as inhibition of cell growth incubated for 7 days by MTS reagent based assay; format: functional; settings: MV4-11, 168 h
[6] = molecular target: T1, Protein cereblon/Bromodomain-containing protein 9; test: PROTAC activity at CRBN/BRD9 (unknown origin); format: protein assay
Target sequence in this assay (Q9H8M2 whole entry): as the sequence (Q9H8M2 whole entry, looked up) above
Target sequence in this assay (Q96SW2 whole entry): as the sequence (Q96SW2 whole entry, looked up) above

[7] = tested on: SU-DHL-6; test: Antiproliferative activity against human SU-DHL-6 cells assessed as inhibition of cell growth incubated for 7 days by MTS reagent based assay; format: functional; settings: SU-DHL-6, 168 h
[8] = tested on: Kasumi 1; test: Antiproliferative activity against human Kasumi 1 cells assessed as inhibition of cell growth incubated for 7 days by MTS reagent based assay; format: functional; settings: Kasumi 1, 168 h
[9] = tested on: SU-DHL-2; test: Antiproliferative activity against human SU-DHL-2 cells assessed as inhibition of cell growth incubated for 7 days by MTS reagent based assay; format: functional; settings: SU-DHL-2, 168 h
[10] = tested on: OCI-Ly10; test: Antiproliferative activity against human OCI-Ly10 cells assessed as inhibition of cell growth incubated for 7 days by MTS reagent based assay; format: functional; settings: OCI-Ly10, 168 h
[11] = tested on: MOLM-13; test: Antiproliferative activity against human MOLM-13 cells assessed as inhibition of cell growth incubated for 7 days by MTS reagent based assay; format: functional; settings: MOLM-13, 168 h
[12] = tested on: U-937; test: Antiproliferative activity against human U-937 cells assessed as inhibition of cell growth incubated for 7 days by MTS reagent based assay; format: functional; settings: time 7.0 day

Row | SMILES | Activity [1] [%] | IC50 [2] [nM] | Activity [3] [%] | Activity [4] [%] | IC50 [5] [µM] | DC50 [6] [nM] | IC50 [7] [nM] | IC50 [8] [nM] | IC50 [9] [nM] | IC50 [10] [nM] | IC50 [11] [nM] | Activity [12]
1 | COc1cc(-c2cn(C)c(=O)c3ccccc23)cc(OC)c1CN1CCN(c2ccc(NC3CCC(=O)NC3=O)cc2F)CC1 (centres undefined) | 86 | 17.7 | 34 | 74.7 | > 5 |  |  |  |  |  |  | 
2 | COc1cc(-c2cn(C)c(=O)c3ccccc23)cc(OC)c1CN1CCC(c2ccc3c4c(cccc24)C(=O)N3C2CCC(=O)NC2=O)CC1 (centres undefined) | 50.5 | 2.44 | 79.5 | 80.5 | > 5 |  |  |  |  |  |  | 
3 | COc1cc(-c2cn(C)c(=O)c3ccccc23)cc(OC)c1CN1CCN(c2ccc(N3CCC(=O)NC3=O)cc2)CC1 | 25 | 691 | 12 | 8 | > 5 |  |  |  |  |  |  | 
4 | COc1cc(-c2cn(C)c(=O)c3ccccc23)cc(OC)c1CN1CCC(CN2CCN(c3ccc(NC4CCC(=O)NC4=O)cn3)CC2)CC1 (centres undefined) | 86.5 | 11.9 | 56 | 85.5 | > 5 |  |  |  |  |  |  | 
5 | COc1cc(-c2cn(C)c(=O)c(C)c2C)cc(OC)c1CN1CC[C@H](N2CCN(c3ccc(N[C@H]4CCC(=O)NC4=O)cc3F)CC2)C(F)(F)C1 (racemic) [SENDEGOBRESIB] | 93.9 | 35.3 | 6.9 | 74.9 | > 5 | 3 | 3250 | 14.6 | 323 | 1240 | 59.9 | Active; Weak Inhibitory Effect Observed
6 | CCn1cc(-c2cccc(C(F)(F)F)c2)c2sc(C(=N)NC3CCS(=O)(=O)CC3)cc2c1=O |  | 385 |  |  |  |  | 1210 | 453 | 1590 | 2710 | 1220 | Active; Weak Inhibitory Effect Observed
7 | COc1cc(-c2cn(C)c(=O)c3ccccc23)cc(OC)c1CN1CCN(c2ccc(C3CCC(=O)NC3=O)cc2)CC1 (centres undefined) | 83.7 | 128 | 65 | 87.3 | > 5 |  |  |  |  |  |  | 
8 | COc1cc(-c2cn(C)c(=O)c3ccccc23)cc(OC)c1CN1CCN(c2ccc(NC3CCC(=O)NC3=O)cn2)CC1 (centres undefined) | 59.3 | 1670 | 41.7 | 46.7 | > 5 |  |  |  |  |  |  | 
9 | COc1cc(-c2cn(C)c(=O)c3ccccc23)cc(OC)c1CN1CCN(c2ccc(C(=O)NC3CCC(=O)NC3=O)cn2)CC1 (centres undefined) | 50 | 2490 | 33.3 | 39.3 | > 5 |  |  |  |  |  |  | 
10 | COc1cc(-c2cn(C)c(=O)c3ccccc23)cc(OC)c1CN1CCN(c2ccc(C(=O)NC3CCC(=O)NC3=O)nc2)CC1 (centres undefined) | 65 | 4510 | 18.3 | 21.3 | > 5 |  |  |  |  |  |  | 
11 | COc1cc(-c2cn(C)c(=O)c3ccccc23)cc(OC)c1CN1CCN(c2ccc(C(=O)NC3CCC(=O)NC3=O)cc2)CC1 (centres undefined) | 35.7 | 3150 | 26.7 | 32.3 | > 5 |  |  |  |  |  |  | 
12 | COc1cc(-c2cn(C)c(=O)c3ccccc23)cc(OC)c1CN1CCN(c2ccc(NC3CCC(=O)NC3=O)cc2)CC1 (centres undefined) | 80.5 | 424 | 45.5 | 66 | > 5 |  |  |  |  |  |  | 
13 | COc1cc(-c2cn(C)c(=O)c3ccccc23)cc(OC)c1CN1CCN(c2ccc(OC3CCC(=O)NC3=O)cc2)CC1 (centres undefined) | 80.5 | 3610 | 32 | 60.5 | > 5 |  |  |  |  |  |  | 
14 | COc1cc(-c2cn(C)c(=O)c3ccccc23)cc(OC)c1CN1CCC(CN2CCN(c3ccc(OC4CCC(=O)NC4=O)cc3)CC2)CC1 (centres undefined) | 98 | 46.9 | 13 | 89 | > 5 |  |  |  |  |  |  | 
15 | COc1cc(-c2cn(C)c(=O)c3ccccc23)cc(OC)c1CN1CCC(CN2CCN(c3ccc(NC4CCC(=O)NC4=O)cc3)CC2)CC1 (centres undefined) | 97.5 | 5.61 | 69.5 | 96.5 | > 5 |  |  |  |  |  |  | 
16 | COc1cc(-c2cn(C)c(=O)c3ccccc23)cc(OC)c1CN1CCC(CN2CCN(c3ccc(C(=O)NC4CCC(=O)NC4=O)nc3)CC2)CC1 (centres undefined) | 92 | 5.31 | 29.5 | 95.5 | > 5 |  |  |  |  |  |  | 
